Assay results taken from PubChem BioAssay (NCI).
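Where inhibition never reached the appropriate level, the endpoint shown equals the highest concentration tested. Otherwise, values were interpolated linearly from a five-concentration, 48-hour dose response in 96-well plates. GI50 is the concentration that inhibits growth by half. TGI denotes the concentration required for complete inhibition of growth.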

Tests used:
Experiment in all cases: inhibition of tumour cell growth, NCI panel, 48 h
ACHN renal = tested on: ACHN renal
RXF 393 renal = tested on: RXF 393 renal
786-0 renal = tested on: 786-0 renal
EKVX NSCLC = tested on: EKVX NSCLC
SF-295 CNS = tested on: SF-295 CNS
SK-OV-3 ovarian = tested on: SK-OV-3 ovarian
SK-MEL-2 melanoma = tested on: SK-MEL-2 melanoma
SK-MEL-5 melanoma = tested on: SK-MEL-5 melanoma
SN12C renal = tested on: SN12C renal
SNB-75 CNS = tested on: SNB-75 CNS

Row | Structure (SMILES) | GI50 (ACHN renal) [µM] | TGI (ACHN renal) [µM] | GI50 (RXF 393 renal) [µM] | TGI (RXF 393 renal) [µM] | GI50 (786-0 renal) [µM] | TGI (786-0 renal) [µM] | GI50 (EKVX NSCLC) [µM] | TGI (EKVX NSCLC) [µM] | GI50 (SF-295 CNS) [µM] | TGI (SF-295 CNS) [µM] | GI50 (SK-OV-3 ovarian) [µM] | TGI (SK-OV-3 ovarian) [µM] | GI50 (SK-MEL-2 melanoma) [µM] | TGI (SK-MEL-2 melanoma) [µM] | GI50 (SK-MEL-5 melanoma) [µM] | TGI (SK-MEL-5 melanoma) [µM] | GI50 (SN12C renal) [µM] | TGI (SN12C renal) [µM] | GI50 (SNB-75 CNS) [µM] | TGI (SNB-75 CNS) [µM]
1 | Cc1ccc2[c](c1)[Sn]([c]1ccccc1)([c]1ccccc1)[c]1cc(C)ccc1N2C | 66.8 | > 100 | 11.3 | 31.8 | 16.2 | > 100 | 41.4 | > 100 | > 100 | > 100 | > 100 | > 100 | 11.2 | 51.9 | 33.2 | > 100 | > 100 | > 100 | > 100 | > 100
2 | NC(=O)c1cn(Cc2ccccc2)c(=O)n1Cc1ccccc1 | – | > 100 | – | > 100 | – | > 100 | – | > 100 | – | > 100 | – | > 100 | – | > 100 | – | > 100 | – | > 100 | – | > 100
3 | CC(Cl)CN1c2ccccc2Sc2ccc(Cl)cc21 (configuration not stated) | – | > 10 | – | > 10 | – | > 10 | – | > 10 | – | > 10 | – | > 10 | – | > 10 | – | > 10 | – | > 10 | – | > 10
4 | Cc1sc2c(c1C)C(c1ccc(Cl)cc1)=N[C@@H](CC(=O)Nc1ccc(OCCOCCOCCOCCNc3cccc4c3C(=O)N(C3CCC(=O)NC3=O)C4=O)cc1)c1nnc(C)n1-2 (some centres not stated) | 0.753 | > 100 | 0.803 | 48.5 | – | > 100 | 0.409 | > 100 | 0.234 | > 100 | 0.306 | > 31.6 | 0.347 | > 100 | 0.195 | 27.5 | – | > 100 | < 0.01 | –
5 | Oc1ccc(N=Nc2nccs2)c(O)c1 | 2.96 | 33.8 | 5.65 | 30.1 | 3.61 | 27.7 | 2.1 | 15.3 | 2.73 | 15.1 | 6.97 | 62.6 | 17.1 | 60.3 | 3.44 | 18.4 | 9.42 | 38.7 | 14.2 | > 100
6 | CN1C(NNC(=O)c2cccnc2)=NS(=O)(=O)c2cc(Cl)ccc21 | > 100 | > 100 | > 100 | > 100 | > 100 | > 100 | > 100 | > 100 | > 100 | > 100 | > 100 | > 100 | > 100 | > 100 | > 100 | > 100 | > 100 | > 100 | > 100 | > 100
7 | CC12CCC(=O)N1c1cccnc1N2 (configuration not stated) | – | > 100 | – | > 100 | – | > 100 | – | > 100 | – | > 100 | – | > 100 | – | > 100 | – | > 100 | – | > 100 | – | > 100
8 | COc1ccc(-c2nn(-c3cccc(Cl)c3)cc2-c2nc(N)[nH]c(=O)c2C#N)cc1 | 9.92 | > 100 | 4.51 | 22.4 | 4.65 | 33.5 | 3.29 | 35.4 | 2.36 | 9.23 | 6.56 | 30.7 | 3.94 | 15.8 | 4.07 | 15.9 | 6.41 | > 100 | 2.88 | 21.1
9 | C1=NC(N(Cc2ccccc2)Cc2ccccc2)N(Cc2ccccc2)N1 (configuration not stated) | – | 57 | – | 30.4 | – | 35.4 | – | 56.2 | – | 29.6 | – | 67.2 | – | 31.8 | – | 27.3 | – | 34.1 | – | 62.8
10 | O=C(CCN1CCOCC1)Nc1cccc(-n2cc(-c3ccncc3)c(-c3ccc(Cl)c(O)c3)n2)c1 | 2.5 | 12.5 | 1.39 | 4.66 | 1.9 | 4.75 | 3.63 | 20.4 | 1.31 | 3.38 | 3.51 | 14.4 | 1.85 | 6.58 | 0.621 | 2.36 | 3.74 | 23.6 | 0.825 | 3.3
